Test results from patent publication US9718790B2, “Triazine derivative and pharmaceutical composition having an analgesic activity comprising the same” (SHIONOGI & CO., LTD., priority 2010, dated 2017).

target: human P2X3 receptor (Homo sapiens (Human), UniProt P56373); experiment: Evaluation of human P2X3 receptor inhibitory activity (Fluo-3 calcium fluorescence, FDSS 3000, ATP stimulation); assay type: cell-based; conditions: C6BU-1 cells stably expressing human P2X3 receptor;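 also: stimulus was 50 nM ATP with fluorescence followed for 3 min, and the response per well was peak post-ATP fluorescence divided by the reading at measurement start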
Sequence (P56373 whole entry): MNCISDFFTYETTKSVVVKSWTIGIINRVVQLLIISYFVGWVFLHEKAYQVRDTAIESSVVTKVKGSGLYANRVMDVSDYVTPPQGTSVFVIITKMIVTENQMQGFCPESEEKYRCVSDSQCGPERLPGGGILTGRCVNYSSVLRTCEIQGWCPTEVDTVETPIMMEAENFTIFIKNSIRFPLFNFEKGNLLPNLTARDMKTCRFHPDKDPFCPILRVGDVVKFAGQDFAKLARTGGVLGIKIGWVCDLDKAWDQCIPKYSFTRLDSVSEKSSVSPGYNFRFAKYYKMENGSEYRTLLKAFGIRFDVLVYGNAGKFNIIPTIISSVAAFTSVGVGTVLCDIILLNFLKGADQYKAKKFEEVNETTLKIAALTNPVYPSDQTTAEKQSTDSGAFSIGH

| SMILES | IC50 |
| --- | --- |
| COC(=O)CCn1c(=O)[nH]/c(=N\c2ccc(OC(C)C)c(Cl)c2)n(Cc2ccc(C)cc2)c1=O [Compound I-2023] | 4 nM |
| Cc1oc2ccc(/N=c3\[nH]c(=O)n(CCCO)c(=O)n3Cc3ccc(Cl)cc3)cc2c1C [Compound I-2074] | 7 nM |
| CC[C@@H](C)Oc1ccc(/N=c2\[nH]c(=O)n(C[C@H](C)C(=O)OC)c(=O)n2Cc2ccc(Cl)cc2)cc1 [Compound I-0727] | 12 nM |
| CCOC(=O)c1csc(Oc2ccc(/N=c3\[nH]c(=O)n(CC)c(=O)n3Cc3ccc(Cl)cc3)cc2)n1 [Compound I-2191] | 5 nM |
| Cc1ccc(Cn2c(=O)n(CCC(=O)O)c(=O)[nH]/c2=N\c2ccc3[nH]c(=O)sc3c2)cc1 [Compound I-2133] | 182 nM |
| O=C(O)Cn1c(=O)[nH]/c(=N\c2ccc(OC3CCC3)cc2)n(Cc2ccc(Cl)cc2)c1=O [Compound I-1943] | 258 nM |
| CC(C)Oc1ccc(/N=c2\[nH]c(OCC(=O)NN(C)C)nc(=O)n2Cc2ccc(Cl)cc2)cc1F [Compound I-0583] | 38 nM |
| CCOC(=O)CCCn1c(=O)[nH]/c(=N\c2ccc3oc(C)cc3c2)n(Cc2ccc(C)cc2)c1=O [Compound I-0574] | 15 nM |
| CC(C)Oc1ccc(/N=c2\[nH]c(=O)n(C[C@H](C)C(=O)O)c(=O)n2Cc2ccc(F)cc2)cc1F [Compound I-0637] | 69 nM |
| CCn1c(=O)[nH]/c(=N\c2ccc(Oc3ccc(C(=O)OC)c(F)c3)cc2)n(Cc2ccc(Cl)cc2)c1=O [Compound I-2218] | 3 nM |
| COC(=O)C(C)(C)Cn1c(=O)[nH]/c(=N\c2ccc(OC(C)C)c(CO)c2)n(Cc2ccc(Cl)cc2)c1=O [Compound I-1423] | 41 nM |
| COC(=O)[C@@H](C)Cn1c(=O)[nH]/c(=N\c2ccc(OC3CCC3)cc2)n(Cc2ccc(Cl)cc2)c1=O [Compound I-1281] | 6 nM |
| Cc1ccc(Cn2c(=O)n(C[C@H](C)C(=O)O)c(=O)[nH]/c2=N\c2ccc(Oc3cccnc3C)cc2)cc1 [Compound I-1231] | 36 nM |
| CCOC(=O)c1cc2cc(/N=c3\[nH]c(=O)n(C[C@H](C)C(=O)OC)c(=O)n3Cc3ccc(Cl)cc3)ccc2o1 [Compound I-1938] | 312 nM |
| CC(C)Oc1ccc(/N=c2\[nH]c(=O)n(CCC(=O)O)c(=O)n2CC2CCC3(CC2)CC3)cc1Cl [Compound I-1461] | 25 nM |
| Cc1ccc(Cn2c(=O)n(C)c(=O)[nH]/c2=N\c2ccc(Oc3cncc(C(=O)O)c3)cc2)cc1 [Compound I-2121] | 21 nM |
| O=c1[nH]/c(=N\c2ccc(OC3CCC3)cc2)n(Cc2ccc(Cl)cc2)c(=O)n1CCCO [Compound I-1918] | 12 nM |
| COC(=O)c1cccc(Oc2ccc(/N=c3\[nH]c(=O)n(C)c(=O)n3Cc3ccc(Cl)cc3)cc2)c1 [Compound I-2059] | 56 nM |
| CCn1c(=O)[nH]/c(=N\c2ccc(Oc3cccc(C(=O)O)c3)cc2)n(Cc2ccc(C)cc2)c1=O [Compound I-2034] | 9 nM |
| CC(C)=Cc1ccc(/N=c2\[nH]c(=O)n(C[C@H](C)C(=O)O)c(=O)n2Cc2ccc(C)cc2)cn1 [Compound I-1304] | 574 nM |

same assay, conditions: C6BU-1 cells stably expressing human P2X3 receptor, Fluo-3 fluorescence, FDSS 3000

| SMILES | IC50 |
| --- | --- |
| NC(=O)c1cc(Oc2ccc(/N=c3\[nH]c(=O)[nH]c(=O)n3Cc3ccc(Cl)cc3)cc2)ccn1 [Compound I-1896] | 14 nM |
| CCc1oc2ccc(/N=c3\[nH]c(=O)n(C[C@H](CC)NC(C)=O)c(=O)n3Cc3ccc(Cl)cc3)cc2c1C [Compound I-1708] | 17 nM |
| COC(=O)[C@@H](C)Cn1c(=O)[nH]/c(=N\c2ccc(Oc3ccccc3)cc2)n(Cc2ccc(Cl)cc2)c1=O [Compound I-0989, (S)-1-(4-chlorobenzyl)-3-(2-methoxycarbonylpropyl)-6-(4-phenoxy-phenylimino)-1,3,5-triazinane-2,4-dion] | 68 nM |
| CCn1c(=O)[nH]/c(=N\c2ccc(Oc3cc(OC)ncn3)cc2)n(Cc2ccc(Cl)cc2)c1=O [Compound I-1859] | 5 nM |
| CC(C)=Cc1ccc(/N=c2\[nH]c(=O)n(C[C@H](C)C(=O)O)c(=O)n2Cc2ccc(Cl)cc2)cc1Cl [Compound I-0959] | 7 nM |
| CCC(CC)Oc1ccc(/N=c2\[nH]c(=O)n(CCC(=O)O)c(=O)n2Cc2ccc(C)cc2)cc1 [Compound I-1069] | 111 nM |
| CCc1nc2ccc(/N=c3\[nH]c(=O)n(CCNC(C)=O)c(=O)n3Cc3ccc(Cl)cc3)cc2s1 [Compound I-1612] | 5 nM |
| CCOC(=O)CCn1c(=O)[nH]/c(=N\c2ccc(OCCC(C)C)cc2)n(Cc2ccc(C)cc2)c1=O [Compound I-1055] | 91 nM |
| O=c1[nH]/c(=N\c2ccc(Oc3ccnc(O)c3)cc2)n(Cc2ccc(Cl)cc2)c(=O)n1C[C@H](O)CO [Compound I-1731] | 5 nM |
| Cc1nc2ccc(/N=c3\[nH]c(=O)n(CC(N)=O)c(=O)n3Cc3ccc(Cl)cc3)cc2s1 [Compound I-1659] | 6 nM |
| COC(=O)[C@@H](C)Cn1c(=O)[nH]/c(=N\c2ccc(Oc3ccncc3)cc2)n(Cc2ccc(C)cc2)c1=O [Compound I-1125] | 4 nM |
| CC(C)Oc1ccc(/N=c2\[nH]c(=O)n(CC3(CO)COC3)c(=O)n2Cc2ccc(Cl)cc2)cc1Cl [Compound I-1010] | 4 nM |
| CCn1c(=O)[nH]/c(=N\c2ccc(Oc3ccnc(CO)c3)cc2)n(Cc2ccc(Cl)cc2)c1=O [Compound I-1844] | 4 nM |

same assay, conditions: human P2X3 receptor, Test Example 1

| SMILES | IC50 |
| --- | --- |
| Cc1ccc(Cn2c(=O)n(C)c(=O)[nH]/c2=N\c2ccc(Oc3cc(C(=O)O)ncn3)cc2)cc1 [Compound I-2445] | 13 nM |
| CCOC(=O)Cn1c(=O)[nH]/c(=N\c2ccc(Oc3nccs3)cc2)n(Cc2ccc(Cl)cc2)c1=O [Compound I-2618] | 7 nM |
| CCn1c(=O)[nH]/c(=N\c2ccc(Oc3nccc(C(=O)O)n3)cc2)n(Cc2ccc(Cl)cc2)c1=O [Compound I-2319] | 17 nM |
| CCn1c(=O)[nH]/c(=N\c2ccc(Nc3ccncc3)cc2)n(Cc2ccc(C)cc2)c1=O [Compound I-2569] | 162 nM |
| Cc1ccc(Cn2c(=O)n(CCC(=O)O)c(=O)[nH]/c2=N\c2ccc(Oc3ncccn3)cc2)cc1 [Compound I-2558] | 22 nM |
| Cc1ccc(Cn2c(=O)n(C)c(=O)[nH]/c2=N\c2ccc(Oc3cc(C(N)=O)ccn3)cc2)cc1 [Compound I-2342] | 16 nM |
| CCn1c(=O)[nH]/c(=N\c2ccc(Oc3cncc(C(=O)OC)n3)cc2)n(Cc2ccc(Cl)cc2)c1=O [Compound I-2270] | < 4 nM |
| Cc1nc2ccc(/N=c3\[nH]c(=O)n(CC(CO)CO)c(=O)n3Cc3ccc(Cl)cc3)cc2s1 [Compound I-1544] | 4 nM |
| NC(=O)Cn1c(=O)[nH]/c(=N\c2ccc(Oc3nccs3)cc2)n(Cc2ccc(Cl)cc2)c1=O [Compound I-2644] | 17 nM |
| CCn1c(=O)[nH]/c(=N\c2ccc(Oc3cccc(C(=O)O)n3)cc2)n(Cc2ccc(Cl)cn2)c1=O [Compound I-2239] | 49 nM |
| CCn1c(=O)[nH]/c(=N\c2ccc(Oc3ccc(C(=O)OC)nn3)cc2)n(Cc2ccc(Cl)cc2)c1=O [Compound I-2269] | 2 nM |
| COC(=O)[C@@H](C)Cn1c(=O)[nH]/c(=N\c2ccc(CC3CC3)c(Cl)c2)n(Cc2ccc(C)cc2)c1=O [Compound I-1511] | 29 nM |
| Cc1ccc(Cn2c(=O)n(C[C@H](C)C(=O)O)c(=O)[nH]/c2=N\c2ccc(Oc3ccccc3)nc2)cc1 [Compound I-1517] | 240 nM |
| COC(=O)CCn1c(=O)[nH]/c(=N\c2ccc(Oc3cccc(F)n3)cc2)n(Cc2ccc(Cl)cc2)c1=O [Compound I-2650] | 3 nM |
